According to patent US5912351A, “Anhydrous 1,4-Dihydropyridines and salts thereof” (Recordati, S.A. Chemical and Pharmaceutical Company, priority 1995, dated 1999):
pIC50: −log10 of the molar value. Like-named read-outs stand apart in the source and are kept apart here.

Key:
[1] = tested on: mouse peritoneal macrophages; experiment: Cholesteryl ester hydrolysis in macrophages; type: cell-based; settings: AcLDL 50 μg/ml + S-58035 1 μg/ml + 5 × 10^-6 M compound
Method: These experiments were performed by incubating cells preloaded with [^3 H]cholesterol in the presence of the specific ACAT inhibitor S-58035. The blockage of intracellular reesterification of cholesterol allowed the assessment of the ability of cells to hydrolyze the accumulated cholesterol esters.
For studies involving the quantitation of the hydrolysis of cholesteryl esters in cytoplasmic lipid droplets, cells, prepared according to the procedure in Example 6A, are loaded with cholesteryl esters by exposure for 24 hours to the medium containing 50 μg/ml acetyl LDL. [1,2-^3 H]Cholesterol is included in all loading media at a concentration of 0.5 μCi/ml. After 24 hours loading period, during which time the radiolabeled cholesterol is incorporated and esterified, the cell monolayers are washed and incubated an additional 24 hours in medium containing 0.1% bovine serum albumin to allow the intracellular pools of labelled cholesterol to equilibrate to the same specific activity. To quantitate cholesteryl ester hydrolysis, the loaded cells are incubated for up to 24 hours in Dulbecco's minimum essential medium containing, 0.1% bovine serum albumin, lercanidipines, and the compound S-58035, an inhibitor of acyl-coenzyme A-cholesterol acyltransferase. The inhibition of acyl-coenzyme A-cholesterol acyltransferase prevents the reesterification of any free cholesterol generated by cholesteryl ester hydrolysis and thus allows assessment of the activity of the hydrolase. The hydrolysis of the cholesteryl esters is quantified by determining the decrease of radiolabeled cholesteryl esters (E. H. Harrison et al., J. Lipid. Res. 31: […] with phosphate buffered saline and extracted with hexane:isopropanol (3:2 v/v). The media were extracted with chloroform:methanol (2:1 v/v). After solvent removal, free and esterified cholesterol were separated by TLC (isooctane:diethyl ether:acetic acid, 75:25:2 by volume). Cholesterol mass or radioactivity of the spots were determined by an enzymatic method (Boehringer Mannheim, Germany) (F. Bernini et al., Atherosclerosis 104: 19 (1993)) or by liquid scintillation counting (Lipoluma Lumac, Landgraf, The Netherlands) respectively.

renal hypertensive dogs = experiment: Blood pressure in renal hypertensive dogs, oral administration; type: in vivo, dog; settings: for ED25: Canis lupus familiaris, linear regression analysis, read-out: ED25 (dose inducing 25% decrease in DBP at peak effect), 95% C.L.
Method: The antihypertensive effects of oral administration of lercanidipine and its enantiomers were tested in renal hypertensive dogs.
Male Beagle dogs weighing 12-13 kg, aging 1-3 years (Nossan Allevamenti, Italy) were used. Chronic sustained hypertension was induced by bilateral renal artery constriction, according to the Goldblatt method "two-kidney, two clip hypertension". Under barbiturate anaesthesia (35 mg/kg i.v.), during two different surgical interventions one month apart from each other, both renal arteries were clipped with original renal silver clips and narrowed by about 60-70%. After two months from the last intervention,an experimental renal hypertension was produced and the animals were suitable for the implantation of a catheter. Under sodium pentobarbital anaesthesia (35 mg/kg i.v.), in sterile conditions, the dogs were catheterized by inserting an indwelling cannula (PE 200 Clay Adams) into the ascending aorta through the right common carotid artery. The catheter was subcutaneously exteriorized at the back of the neck, filled with heparinized saline solution and flushed daily to prevent clotting. After a week recovery time from surgery, the animals were connected to a HP 1290A pressure transducer connected to an HP 8805B carrier amplifier of a Hewlett Packard HP 7700 multichannel polygraph, to monitor the arterial blood pressure. Heart rate was manually computed from the pressure trace.
All animals were alternatively treated with placebo, lercanidipine and its (R)- and (S)- enantiomers. The drugs were administered orally with a straight round aseptic tip catheter (Pores Serlat--France). The drugs were suspended in aqueous 0.5% Methocel A4C plus Antifoam M10 (10%). The amount administered was 1 ml/kg.
The suspending medicine was used as placebo. During experimental performance, the arterial blood pressure was continuously recorded 30 min. before (basal values) and up to 8 hours after drug administration.
The ED25 values (dose inducing 25% decrease in DBP at peak effect) were evaluated by linear regression analysis and summarized in the Table 4.

[2] = tested on: rat aortic smooth muscle cells (myocytes); experiment: Myocytes growth inhibition measured by cell count (rat myocytes); type: cell-based; settings: 72 h, cell count after 72 hours, read-out: IC50 = concentration required to inhibit cell growth by 50%
Method: Migration of myocytes was investigated for the present invention using rat aortic smooth muscle cells in the presence of fibrinogen as chemotactic factor, whereas for studies on their proliferation rat and human cells were used. Cell count and [3H]-thymidine incorporation were used to evaluate myocytes growth. The methodology was as follows:
Myocytes were cultured from the intima-medial layer of the aortas of male Sprague-Dawley rats (200-250 g). Cells were grown in monolayers at 37° C. in a humidified atmosphere of 5% CO2 in Eagle's minimum essential medium supplemented with 10% (v/v) fetal calf serum, 100 U/ml penicillin, 0.1 mg/ml streptomycin, 20 mM tricine buffer and 1% (v/v) non-essential amino acid solution. The medium was changed every third day. Cells were used between the 4th and 10th passage. Cell viability was timely assessed by trypan blue exclusion. Myocytes were identified for growth behavior, morphology and using monoclonal antibody specific for a-actin, the actin isoform typical of myocytes. Human vascular myocytes (A 617 from human femoral artery) kindly provided by Prof. G. Gabbiani of The General Pathology Institute (Geneva University--Switzerland) were grown in the same culture conditions. (These or other human vascular myocytes can be obtained and cultured as described by Corsini et al., Atherosclerosis, 101: 117-125, (1993); Corsini et al., Pharm. Res, 23: 173 (1991); Ross, R, J. Cell Bio., 50: 172, (1971); and Skalli, 0. et al., J. Cell Bio., 103: 2787 (1986)).
Cells were seeded at various densities for rat (2×10^5) and human (5 10×10^4) myocytes/petri dish (35 mm), and incubated with Eagle's minimum essential medium supplemented with 10% fetal calf serum. Twenty-four hours later the medium was changed to one containing 0.4% fetal calf serum to stop cell growth, and the cultures were incubated for 72 hours. At this time (time 0) the medium was replaced by one containing 10% fetal calf serum in the presence or absence of known concentrations of the 1,4-dihydropyridine compounds being tested (shown in Table 1). The incubation was continued for an additional 72 hours at 37° C. Just before the addition of the test substances, an aliquot from each petri dish was used for cell counting. Cell proliferation was evaluated by cell count after trypsinization of the monolayers using a Coulter Counter model ZM. Cell viability was assessed by trypan blue exclusion, and found to be greater than 95% at the drug concentrations used.

[3] = myocytes from SD (Sprague Dawley) rat
[4] = myocytes from SHR (Spontaneously Hypertensive) rat
[5] = myocytes from WK (Wistar Kyoto) rat

Q: With `COC(=O)C1=C(C)NC(C)=C(C(=O)OC(C)(C)CN(C)CCC(c2ccccc2)c2ccccc2)C1c1cccc([N+](=O)[O-])c1` (racemic) [LE, methyl 1,1,N-trimethyl-N-(3,3-diphenylpropyl)-2-aminoethyl 1,4-dihydro-2,6-dimethyl-4-(3-nitrophenyl)-pyridine-3,5-dicarboxylate] as the molecule, how does the “% of cholesteryl ester” value [1] read?
A: 12 ± 1.2%

Q: What about the arterial blood pressure (renal hypertensive dogs) of the same molecule?
A: dose-related decrease

Q: What about the ED25 (renal hypertensive dogs) of the same molecule?
A: 0.9 mg/kg

Q: Which results are given for `COC(=O)C1=C(C)NC(C)=C(C(=O)OC(C)(C)CN(C)CCC(c2ccccc2)c2ccccc2)[C@@H]1c1cccc([N+](=O)[O-])c1` [(R)-LE, (R)-(-)METHYL 1,1-N-TRIMETHYL-N-(3,3-DIPHENYLPROPYL)-2-AMINOETHYL 1,4-DIHYDRO-2,6-DIMETHYL-4-(3-NITROPHENYL)PYRIDINE-3,5-DICARBOXYLATE]?
A: % of cholesteryl ester [1]: 16 ± 2.1%; ED25 (renal hypertensive dogs): > 30 mg/kg; decrease in DBP (renal hypertensive dogs; up to 30 mg/kg): < 10%; pIC50 [2, 3]: 4.51; pIC50 [2, 4]: 5.04; pIC50 [2, 5]: 4.82

Q: Which “% of cholesteryl ester” value [1] does the source give for `COC(=O)C1=C(C)NC(C)=C(C(=O)OC(C)(C)CN(C)CCC(c2ccccc2)c2ccccc2)[C@H]1c1cccc([N+](=O)[O-])c1` [(S)-LE, (S)-(+)-METHYL 1,1-N-TRIMETHYL-N-(3,3-DIPHENYLPROPYL)-2-AMINOETHYL 1,4-DIHYDRO-2,6-DIMETHYL-4-(3-NITROPHENYL)PYRIDINE-3,5-DICARBOXYLATE] here?
A: 14 ± 0.4%

Q: What about the arterial blood pressure (renal hypertensive dogs) of the same molecule?
A: dose-related decrease

Q: And the “efficacy at lowering blood pressure relative to the racemate” value (renal hypertensive dogs)?
A: two fold more efficacious

Q: What about the ED25 (renal hypertensive dogs) of the same molecule?
A: 0.4 mg/kg

Q: What about the pIC50 [2, 3] of the same molecule?
A: 4.48

Q: What about the pIC50 [2, 4] of the same molecule?
A: 4.77

Q: What about the pIC50 [2, 5] of the same molecule?
A: 4.68
